Laboratory results as given in patent US20240391936A1, “TETRAHYDROTHIENO PYRIDINE DERIVATIVES AS DDRS INHIBITORS” (CHIESI FARMACEUTICI S.P.A., priority 2021, published 2024).
pIC50, pKi: −log10 of the molar value.

How the values were obtained:
DDR1 [1] = biological target: T1, DDR1 (Homo sapiens, UniProt Q08345); assay: DDR1 binding assay (LanthaScreen Europium Kinase Binding assay); parameters: purchased Carna Biosciences; details: binding assay, 5 nM DDR1, 20 nM Kinase Tracer 178; Ki from IC50 by Cheng-Prusoff; read-out: Ki DDR1
In short: (§1)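 Compounds incubated 1 h at room temperature with 5 nM kinase, Kinase Tracer 178 (20 nM for DDR1, 10 nM for DDR2) and 2 nM Eu-anti-GST antibody in pH 7.5 HEPES/MgCl2/EGTA/BRIJ35 buffer. TR-FRET 665/615 nm ratio read after 340 nm excitation; IC50 from 4-parameter fit, converted to Ki by Cheng-Prusoff.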

DDR2 = biological target: T2, DDR2 (Homo sapiens, UniProt Q16832); assay: DDR2 binding assay (LanthaScreen Europium Kinase Binding assay); parameters: purchased Life Technologies; details: binding assay, 5 nM DDR2, 10 nM Kinase Tracer 178; Ki from IC50 by Cheng-Prusoff; read-out: Ki DDR2
T2 sequence (Q16832 22-855): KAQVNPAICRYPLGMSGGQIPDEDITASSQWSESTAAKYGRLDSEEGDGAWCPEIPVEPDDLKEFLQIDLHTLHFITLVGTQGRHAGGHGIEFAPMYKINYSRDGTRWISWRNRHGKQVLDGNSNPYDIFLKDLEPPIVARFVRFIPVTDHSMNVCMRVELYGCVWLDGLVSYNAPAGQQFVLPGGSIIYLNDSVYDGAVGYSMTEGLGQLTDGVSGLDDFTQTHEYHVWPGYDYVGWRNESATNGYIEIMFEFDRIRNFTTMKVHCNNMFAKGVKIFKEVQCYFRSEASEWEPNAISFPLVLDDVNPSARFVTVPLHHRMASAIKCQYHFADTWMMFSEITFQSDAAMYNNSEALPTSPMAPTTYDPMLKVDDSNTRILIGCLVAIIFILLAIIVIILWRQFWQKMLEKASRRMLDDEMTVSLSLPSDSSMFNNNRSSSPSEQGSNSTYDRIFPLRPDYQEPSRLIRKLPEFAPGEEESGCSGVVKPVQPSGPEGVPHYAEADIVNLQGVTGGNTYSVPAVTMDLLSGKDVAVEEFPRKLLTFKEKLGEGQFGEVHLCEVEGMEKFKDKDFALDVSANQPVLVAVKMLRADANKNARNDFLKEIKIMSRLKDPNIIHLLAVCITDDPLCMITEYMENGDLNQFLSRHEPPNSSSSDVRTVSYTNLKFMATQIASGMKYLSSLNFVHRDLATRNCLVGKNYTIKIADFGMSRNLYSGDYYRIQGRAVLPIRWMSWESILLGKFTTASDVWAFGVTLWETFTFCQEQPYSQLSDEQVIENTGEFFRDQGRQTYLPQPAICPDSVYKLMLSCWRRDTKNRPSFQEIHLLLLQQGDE
In short: as §1

DDR1 [2] = biological target: T1, DDR1; assay: DDR1 cell based assay (PathHunter U2OS DDR1 assay); parameters: host or cells: U2OS-DDR1 (PathHunter); details: U2OS-DDR1 cells, bovine Type II Collagen 20 μg/ml
In short: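 U2OS-DDR1 PathHunter cells preincubated 30 min with compound, then stimulated overnight at 37 °C with 20 μg/ml bovine type II collagen. Luminescent complementation signal read after 1 h detection at room temperature; normalized to vehicle (0%) and collagen-only (100%) controls, IC50 from variable-slope sigmoidal fit.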

T1 sequence (Q08345 19-913): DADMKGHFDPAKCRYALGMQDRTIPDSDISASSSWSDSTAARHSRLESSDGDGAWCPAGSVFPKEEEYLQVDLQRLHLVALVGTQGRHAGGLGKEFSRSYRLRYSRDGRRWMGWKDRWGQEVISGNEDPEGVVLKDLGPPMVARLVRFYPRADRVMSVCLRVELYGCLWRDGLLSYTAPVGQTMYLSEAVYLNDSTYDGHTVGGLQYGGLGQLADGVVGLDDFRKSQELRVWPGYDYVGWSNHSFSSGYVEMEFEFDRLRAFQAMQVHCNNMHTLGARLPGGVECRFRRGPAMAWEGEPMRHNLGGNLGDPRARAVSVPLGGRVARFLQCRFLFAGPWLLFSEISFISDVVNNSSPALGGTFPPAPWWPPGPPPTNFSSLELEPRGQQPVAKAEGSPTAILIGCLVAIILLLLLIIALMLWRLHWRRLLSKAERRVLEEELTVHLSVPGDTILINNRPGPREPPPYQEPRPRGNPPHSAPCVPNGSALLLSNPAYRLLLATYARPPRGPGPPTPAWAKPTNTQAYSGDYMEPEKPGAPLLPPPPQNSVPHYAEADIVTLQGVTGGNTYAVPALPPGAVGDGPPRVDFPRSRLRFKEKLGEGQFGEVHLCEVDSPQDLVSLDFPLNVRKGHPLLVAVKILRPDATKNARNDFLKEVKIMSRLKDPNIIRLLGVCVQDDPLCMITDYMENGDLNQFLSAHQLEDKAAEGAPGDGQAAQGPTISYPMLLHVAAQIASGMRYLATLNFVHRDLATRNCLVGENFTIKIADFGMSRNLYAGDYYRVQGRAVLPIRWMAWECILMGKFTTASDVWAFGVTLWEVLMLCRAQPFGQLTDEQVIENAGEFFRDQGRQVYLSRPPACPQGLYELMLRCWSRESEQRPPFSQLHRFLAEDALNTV

| SMILES | pKi (DDR1 [1]) | pKi (DDR2) | pIC50 (DDR1 [2]) |
| --- | --- | --- | --- |
| Cn1ccn2ncc(C(=O)N3CCc4c(C(=O)Nc5cncc(C(F)(F)F)c5)csc4C3)c12 [Example 143, 6-(1-methyl-1H-imidazo[1,2-b]pyrazole-7-carbonyl)-N-(5-(trifluoromethyl)pyridin-3-yl)-4,5,6,7-tetrahydrothieno[2,3-c]pyridine-3-carboxamide] | > 7.60 | > 7.60 | > 7.60 |
| O=C(Nc1cncc(C(F)(F)F)c1)c1csc2c1CCN(C(=O)c1cnc3cnccn13)C2 [Example 127, 6-(imidazo[1,2-a]pyrazine-3-carbonyl)-N-(5-(trifluoromethyl)pyridin-3-yl)-4,5,6,7-tetrahydrothieno[2,3-c]pyridine-3-carboxamide] | > 7.60 | > 7.60 | 7.30 to 7.60 |
| CCn1nc(C(C)(C)C)cc1NC(=O)c1csc2c1CCN(C(=O)c1cnc3ccccn13)C2 [Example 42, N-(3-(tert-butyl)-1-ethyl-1H-pyrazol-5-yl)-6-(imidazo[1,2-a]pyridine-3-carbonyl)-4,5,6,7-tetrahydrothieno[2,3-c]pyridine-3-carboxamide] | > 7.60 | > 7.60 | 7.10 to 7.30 |
| CN(C)[C@@H]1CCN(Cc2cc(NC(=O)c3csc4c3CCN(Cc3cnc5[nH]ccc5c3)C4)cc(C(F)(F)F)c2)C1 [Example 159, (R)-6-((1H-pyrrolo[2,3-b]pyridin-5-yl)methyl)-N-(3-((3-(dimethylamino)pyrrolidin-1-yl)methyl)-5-(trifluoromethyl)phenyl)-4,5,6,7-tetrahydrothieno[2,3-c]pyridine-3-carboxamide] | > 7.60 | > 7.60 | 7.30 to 7.60 |
| O=C(Nc1cncc(C(F)(F)F)c1)c1csc2c1CCN(C(=O)c1cnn3ccccc13)C2 [Example 124, 6-(pyrazolo[1,5-a]pyridine-3-carbonyl)-N-(5-(trifluoromethyl)pyridin-3-yl)-4,5,6,7-tetrahydrothieno[2,3-c]pyridine-3-carboxamide] | > 7.60 | > 7.60 | > 7.60 |
| O=C(Nc1cncc(C(F)(F)F)c1)c1csc2c1CCN(C(=O)c1cnn3cccnc13)C2 [Example 109, 6-(pyrazolo[1,5-a]pyrimidine-3-carbonyl)-N-(5-(trifluoromethyl)pyridin-3-yl)-4,5,6,7-tetrahydrothieno[2,3-c]pyridine-3-carboxamide] | > 7.60 | > 7.60 | 7.30 to 7.60 |
| O=C(Nc1cc(C(F)(F)F)ncn1)c1csc2c1CCN(C(=O)c1cnc3ccccn13)C2 [Example 21, 6-(imidazo[1,2-a]pyridine-3-carbonyl)-N-(6-(trifluoromethyl)pyrimidin-4-yl)-4,5,6,7-tetrahydrothieno[2,3-c]pyridine-3-carboxamide] | > 7.60 | > 7.60 | 7.30 to 7.60 |
| CCC(C)(C)c1cc(NC(=O)c2csc3c2CCN(C(=O)c2cnc4ccccn24)C3)on1 [Example 119, 6-(imidazo[1,2-a]pyridine-3-carbonyl)-N-(3-(tert-pentyl)isoxazol-5-yl)-4,5,6,7-tetrahydrothieno[2,3-c]pyridine-3-carboxamide] | > 7.60 | > 7.60 | 7.30 to 7.60 |
| O=C(Nc1cc(F)cc(C(F)(F)F)c1)c1csc2c1CCN(C(=O)c1cnn3cccnc13)C2 [Example 97, N-(3-fluoro-5-(trifluoromethyl)phenyl)-6-(pyrazolo[1,5-a]pyrimidine-3-carbonyl)-4,5,6,7-tetrahydrothieno[2,3-c]pyridine-3-carboxamide] | > 7.60 | > 7.60 | > 7.60 |
| CC(F)(F)c1cncc(NC(=O)c2csc3c2CCN(C(=O)c2cnn4ccncc24)C3)c1 [Example 122, N-(5-(1,1-difluoroethyl)pyridin-3-yl)-6-(pyrazolo[1,5-a]pyrazine-3-carbonyl)-4,5,6,7-tetrahydrothieno[2,3-c]pyridine-3-carboxamide] | > 7.60 | > 7.60 | 7.10 to 7.30 |
| O=C(Nc1cncc(C(F)(F)F)c1)c1csc2c1CCN(C(=O)c1cnn3ccsc13)C2 [Example 141, 6-(pyrazolo[5,1-b]thiazole-7-carbonyl)-N-(5-(trifluoromethyl)pyridin-3-yl)-4,5,6,7-tetrahydrothieno[2,3-c]pyridine-3-carboxamide] | > 7.60 | > 7.60 | > 7.60 |

More lines, now with the values ahead:

| pKi (DDR1 [1]) | pKi (DDR2) | pIC50 (DDR1 [2]) | SMILES |
| --- | --- | --- | --- |
| > 7.60 | > 7.60 | 7.10 to 7.30 | CN1CCC(Oc2ccc(NC(=O)c3csc4c3CCN(C(=O)c3cnc5ccccn35)C4)cc2C(F)(F)F)C1 (stereo not drawn) [Example 31, 6-(imidazo[1,2-a]pyridine-3-carbonyl)-N-(4-((1-methylpyrrolidin-3-yl)oxy)-3-(trifluoromethyl)phenyl)-4,5,6,7-tetrahydrothieno[2,3-c]pyridine-3-carboxamide] |
| > 7.60 | > 7.60 | > 7.60 | O=C(Nc1cncc(C(F)(F)F)c1)c1csc2c1CCN(C(=O)c1cnc3ccccn13)C2 [Example 28, 6-(imidazo[1,2-a]pyridine-3-carbonyl)-N-(5-(trifluoromethyl)pyridin-3-yl)-4,5,6,7-tetrahydrothieno[2,3-c]pyridine-3-carboxamide] |
| > 7.60 | > 7.60 | 7.10 to 7.30 | O=C(Nc1cc(CN2CCN(C3COC3)CC2)cc(C(F)(F)F)c1)c1csc2c1CCN(C(=O)c1cnc3ccccn13)C2 [Example 54, 6-(imidazo[1,2-a]pyridine-3-carbonyl)-N-(3-((4-(oxetan-3-yl)piperazin-1-yl)methyl)-5-(trifluoromethyl)phenyl)-4,5,6,7-tetrahydrothieno[2,3-c]pyridine-3-carboxamide] |
| > 7.60 | > 7.60 | > 7.60 | O=C(Nc1cc(CN2CCCC2)cc(C(F)(F)F)c1)c1csc2c1CCN(C(=O)c1cnc3ccccn13)C2 [Example 11] |
| > 7.60 | > 7.60 | > 7.60 | O=C(Nc1cc(CN2CCC2)cc(C(F)(F)F)c1)c1csc2c1CCN(C(=O)c1cnc3ccccn13)C2 [Example 52, N-(3-(azetidin-1-ylmethyl)-5-(trifluoromethyl)phenyl)-6-(imidazo[1,2-a]pyridine-3-carbonyl)-4,5,6,7-tetrahydrothieno[2,3-c]pyridine-3-carboxamide] |
| > 7.60 | 7.30 to 7.60 | 7.30 to 7.60 | Cc1cccc2ncc(C(=O)N3CCc4c(C(=O)Nc5cc(CN6CC[C@@H](N(C)C)C6)cc(C(F)(F)F)c5)csc4C3)n12 [Example 162, (R)—N-(3-((3-(dimethylamino)pyrrolidin-1-yl)methyl)-5-(trifluoromethyl)phenyl)-6-(5-methylimidazo[1,2-a]pyridine-3-carbonyl)-4,5,6,7-tetrahydrothieno[2,3-c]pyridine-3-carboxamide] |
| > 7.60 | > 7.60 | > 7.60 | O=C(Nc1ccc(OC2COC2)c(C(F)(F)F)c1)c1csc2c1CCN(C(=O)c1cnc3ccccn13)C2 [Example 13, 6-(imidazo[1,2-a]pyridine-3-carbonyl)-N-(4-(oxetan-3-yloxy)-3-(trifluoromethyl)phenyl)-4,5,6,7-tetrahydrothieno[2,3-c]pyridine-3-carboxamide] |
| > 7.60 | 7.30 to 7.60 | 7.30 to 7.60 | CN(C)Cc1cc(NC(=O)c2csc3c2CCN(C(=O)c2cnc4ccccn24)C3)cc(C(F)(F)F)n1 [Example 129, N-(2-((dimethylamino)methyl)-6-(trifluoromethyl)pyridin-4-yl)-6-(imidazo[1,2-a]pyridine-3-carbonyl)-4,5,6,7-tetrahydrothieno[2,3-c]pyridine-3-carboxamide] |
| > 7.60 | > 7.60 | 7.10 to 7.30 | CC(F)(F)c1cncc(NC(=O)c2csc3c2CCN(C(=O)c2cnc4ccccn24)C3)c1 [Example 115, N-(5-(1,1-difluoroethyl)pyridin-3-yl)-6-(imidazo[1,2-a]pyridine-3-carbonyl)-4,5,6,7-tetrahydrothieno[2,3-c]pyridine-3-carboxamide] |
